Test results from patent publication US11096977B2, “Development of a standardized and effect-optimized herbal extract of Wedelia chinensis and its use for treating disease” (Academia Sinica, priority 2015, dated 2021).

Experiments:
[1] = tested on: PC-3 AR-negative prostate cancer cells; test: murine model for androgen independent prostate cancer, orthotopic PC-3 luciferase cells; format: in vivo, mice; details: daily WCE by gavage, weekly docetaxel into tail vein; 8 week course
Description: Tumor growth was measured weekly by bioluminescent imaging. Animals were also weighed weekly.

[2] = tested on: DU145 cells; test: CyQUANT direct cell proliferation assay, DU145; format: cell-based; details: WCE 25 μg/ml or 10 nM docetaxel, 48 h
Description: (§1) After 48 h, viable cell numbers were determined using CyQUANT direct cell proliferation assay.

[3] = tested on: PC-3 cells; test: CyQUANT direct cell proliferation assay, PC-3; format: cell-based; details: WCE 25 μg/ml or 10 nM docetaxel, 48 h
Description: as §1

[4] = tested on: LNCaP cells; test: growth rate of LNCaP cells; format: cell-based; details: 20 μg/ml enzalutamide
[5] = tested on: LNCaP-CR cells; test: growth rate of LNCaP-CR cells; format: cell-based; details: 20 μg/ml enzalutamide

## CC(=O)O[C@@]12CO[C@@H]1C[C@H](O)[C@@]1(C)C(=O)[C@H](O)C3=C(C)[C@@H](OC(=O)[C@H](O)[C@@H](NC(=O)OC(C)(C)C)c4ccccc4)C[C@@](O)([C@@H](OC(=O)c4ccccc4)[C@H]21)C3(C)C [docetaxel]
[1]
  body weight (FIG. 4B): large decrease in body weight
[2]
  growth of DU145 cells (FIG. 3B): inhibited growth
[3]
  growth of PC-3 cells (FIG. 3A): inhibited growth

## CNC(=O)c1ccc(N2C(=S)N(c3ccc(C#N)c(C(F)(F)F)c3)C(=O)C2(C)C)cc1F [enzalutamide]
[4]
  growth of LNCaP cells (FIG. 2C): significantly inhibited the growth
[5]
  growth of LNCaP-CR cells (FIG. 2D): significantly less growth inhibition
